Literature values as cited in patent US20140171436A1, “TREATMENT OF ANTIFOLATE NEUROTOXICITY” (Syntrix Biosystems, Inc., priority 2003, published 2014).
Where “and” joins values, the source holds several entries; their conditions need not be identical. Identical values can stand only once. Like-named read-outs stand apart in the source and are kept apart here.

How the values were obtained:
sigma-1 = sigma-1 (Cavia porcellus, UniProt Q60492); settings: Table IV, reference 8; read-out: sigma-1 affinity IC50; cited from earlier work
[1] = in words; 'No' = none known; cited from earlier work
sigma-1 receptor = sigma-1 receptor (Homo sapiens, UniProt Q99720); settings: cited from earlier work
NMDA receptor = settings: read-out: Ki NMDAR; cited from earlier work
sigma-2 = sigma-2 (Homo sapiens, UniProt Q5BJF2); settings: read-out: Ki sigma-2; cited from earlier work
[2] = cited from earlier work
[3] = frequent and massive doses as large as 3300 mg/day; cited from earlier work
[4] = Table IV, undefined agonist/antagonist activity, read-out: sigma-1 affinity
[5] = Table III, sigma-1 antagonists, read-out: sigma-1 affinity
[6] = Table II, sigma-1 agonists, read-out: sigma-1 affinity
[7] = delayed syndrome, moderate dose

sigma-1 receptor, sequence (Q99720 whole entry, species assumed): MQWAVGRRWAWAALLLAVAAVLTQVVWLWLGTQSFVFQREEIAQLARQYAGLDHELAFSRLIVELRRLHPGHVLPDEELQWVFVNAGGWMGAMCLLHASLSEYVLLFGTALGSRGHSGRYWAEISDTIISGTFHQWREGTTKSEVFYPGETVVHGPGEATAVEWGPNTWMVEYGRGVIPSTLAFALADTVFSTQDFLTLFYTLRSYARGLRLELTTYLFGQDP
sigma-1, sequence (Q60492 whole entry): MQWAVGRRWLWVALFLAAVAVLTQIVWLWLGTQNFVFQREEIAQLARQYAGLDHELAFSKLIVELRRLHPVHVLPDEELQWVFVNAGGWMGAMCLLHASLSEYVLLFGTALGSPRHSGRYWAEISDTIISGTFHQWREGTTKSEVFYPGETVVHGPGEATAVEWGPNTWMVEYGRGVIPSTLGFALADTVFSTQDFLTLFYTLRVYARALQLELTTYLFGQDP
sigma-2, sequence (Q5BJF2 whole entry): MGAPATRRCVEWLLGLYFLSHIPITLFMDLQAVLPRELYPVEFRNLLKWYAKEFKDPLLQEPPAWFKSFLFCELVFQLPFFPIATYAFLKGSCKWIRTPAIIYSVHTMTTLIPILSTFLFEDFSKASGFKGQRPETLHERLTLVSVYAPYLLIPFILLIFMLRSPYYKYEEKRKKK

CCN(CC)CCOC(=O)C1(c2ccccc2)CCCC1 [Caramiphen]
IC50 (sigma-1): 25 nM

c1ccc(CN2CCN(Cc3ccc4ccccc4c3)CC2)cc1 [S-21378, 2[(4-benzylpiperazin-1-yl)mothyl] naphthalene, dichiorydrate]
Other known affinity [1]: No
Ki (sigma-1 receptor; [4]): < 50 nM

CCCN1CCC[C@H](c2cccc(O)c2)C1 [(+)-3-PPP, R(+)-3-(3-hydroxyphenyl)-N-propylpiperidine]
Other known affinity [1]: Dopamine receptor

Cc1ccc2c(c1)[C@@]13CCCC[C@H]1[C@@H](C2)N(C)CC3 [Dimemorfan, (+)-3-methyl-N-methylmorphinan]
Ki (NMDA receptor): 17 µM
Ki (sigma-2): 4 to 11 µM
Ki (sigma-1 receptor; read-out: sigma-1 affinity Ki): 151 nM

COCCN1CCN(C[C@H]2CCN(c3ccc(Cl)cc3)C2=O)CC1.O=C(O)C(O)C(O)C(=O)O [MS-377, (R)-(+)-1-(4-chlorophenyl)-3-[4-(2-methoxyethyl)piperazin-1-yl] methyl-2-pyrrolidinone L-tartrate]
Other known affinity [1]: No
Ki (sigma-1 receptor; [5]): < 50 nM

COC(=O)[C@H]1[C@@H](OC(=O)c2ccccc2)C[C@@H]2CC[C@H]1N2C [Cocaine]
Ki (sigma-1 receptor; [6]): 500 to 10000 nM

COc1ccc(CCN2CCN(CCCc3ccccc3)CC2)cc1OC.Cl [SA4503, 1-(3,4-dimethoxyphenethyl)-4-(3-phenylpropyl) piperazine HCl]
Other known affinity [1]: No

2-[4-(4-methoxy-benzyl)piperazin-1-yl-methyl]4-oxo[4H]-benzo-thiazolin-2-one [S-21377]
Other known affinity [1]: No
Ki (sigma-1 receptor; [4]): < 50 nM

C[C@H](Cc1ccccc1)NCCCc1ccccc1 [(−)-PPAP, R(−)-N-(3-phenyl-1-propyl)-1-phenyl-2-aminopropane]
Other known affinity [1]: NMDAR

COc1ccc(N2C[C@H](CN3CCC(O)(c4ccc5c(c4)OCO5)CC3)OC2=O)cc1 [Panamesin]
Ki (sigma-1 receptor; [5]): < 50 nM

CN(Cc1cnc2nc(N)nc(N)c2n1)c1ccc(C(=O)N[C@@H](CCC(=O)O)C(=O)O)cc1 [MTX, Methotrexate]
Incidence ([2]; acute syndrome, >1 g/m^2, IT): 5-40%.
Incidence ([2]; delayed (chronic) syndrome, low dose <10 mg/m^2 oral): Low - 56%.
Incidence ([2]; delayed syndrome, high dose 7-20 g/m^2 every 1-2 weeks): High - 2.3%.
Typical duration of symptoms, insidiously progressive ([2]; delayed syndrome, high dose): High - Insidiously progressive over 3-6 months.
Incidence ([2]; delayed syndrome, moderate dose 10-1000 mg/m^2, depending on net dose): Moderate - 1.9-19.5% depending on net dose.
Radiographic findings: leukoencephalopathy ([2]; delayed syndrome, moderate dose, depending on dose): Moderate - Leukoencephalopathy in 15-75%,
Permanent sequelae: asymptomatic [2, 7]: asymptomatic in 63-74%.
Permanent sequelae: neuropsychologic impairment [2, 7]: neuropsychologic impairment 15%,
Permanent sequelae: recurrent seizures [2, 7]: Moderate - Recurrent seizures 7-26%,
Typical duration of symptoms, mean ([2]; subacute syndrome): Mean 38 hours.
mean duration of symptoms ([2]; subacute syndrome): approximately 40 hours

CN1CC[C@]23CCCC[C@H]2[C@H]1Cc1ccc(OCC2CC2)cc13 [CPK-6, 3-cyclopropylmethoxy-17-methylmorphinan]
Ki (NMDA receptor): 18 µM
Ki (sigma-2): 15 µM
Ki (sigma-1 receptor; read-out: sigma-1 affinity Ki): 148 nM

CN(CCc1ccc(Cl)c(Cl)c1)CCN1CCCC1 [BD-1008, N-[2-(3,4-dicholophenyl)ethyl]-N-methyl-2-(1-pyrrolidinyl)ethylamine]
Other known affinity [1]: sigma-2

CNCCC(Oc1ccc(C(F)(F)F)cc1)c1ccccc1 (centres unmarked) [Fluoxetine]
Other known affinity [1]: SSRI

1-(cyclopropylmethyl)-4-(2′-oxoethyl) piperidine HBr [Dup-734]
Other known affinity [1]: No
Ki (sigma-1 receptor; [5]): < 50 nM

CN1CC[C@@]23CCCC[C@@H]2[C@@H]1Cc1ccc(O)cc13 [dextrorphan]
Ki (sigma-2): 4 to 11 µM
Ki (sigma-1 receptor; read-out: sigma-1 affinity Ki): 144 nM and 140 nM
side-effects [3]: unacceptable PCP-like side-effects

CN(C)CCOCCOC(=O)N1c2ccccc2Sc2ccccc21 [Dimethoxanate]
IC50 (sigma-1): 41 nM
Ki (sigma-1 receptor; [4]): < 50 nM

CCN(CC)CCOCCOC(=O)C1(c2ccccc2)CCCC1 [Carbetapentane]
IC50 (sigma-1): 9 nM
Ki (sigma-1 receptor; [4]): < 50 nM

OC(CN1CCC(Cc2ccc(F)cc2)CC1)c1ccc(Cl)cc1 (centres unmarked) [Eliprodil]
Other known affinity [1]: NMDAR polyamine site
Ki (sigma-1 receptor; [4]): < 50 nM

COc1cccc2c1CCC(=O)N2CCCN1CCN(c2cccc(Cl)c2)CC1 [OPC-14523]
Other known affinity [1]: Sigma-2, 5HT1AR
Ki (sigma-1 receptor; [6]): < 50 nM

CCN(C/C=C\c1ccc(C2CCCCC2)c(Cl)c1)C1CCCCC1.Cl [SR-31747A]
Other known affinity [1]: C8-C7 sterol isomerase
Ki (sigma-1 receptor; [4]): < 50 nM

C=CCOc1ccc2c(c1)[C@@]13CCCC[C@H]1[C@@H](C2)N(C)CC3 [CPK-5, 3-allyloxy-17-methylmorphinan]
Ki (NMDA receptor): 18 µM
Ki (sigma-2): 14 µM
Ki (sigma-1 receptor; read-out: sigma-1 affinity Ki): 156 nM

CC(C)=CCN1CCC2(C)c3cc(O)ccc3CC1C2C (single isomer, unassigned; (+)) [(+)-pentazocine]
Other known affinity [1]: No

C=CCN1CCC2(C)c3cc(O)ccc3CC1C2C (single isomer, unassigned; (+)) [(+)-N-allyl-normetazocine]
Ki (NMDA receptor): 0.6 µM
Ki (sigma-2): 14 µM
Ki (sigma-1 receptor; [6]): < 50 nM
Ki (sigma-1 receptor; read-out: sigma-1 affinity Ki): 58 nM

CCC(C/C=C/c1ccccc1)(c1ccccc1)N(C)CC1CC1 (single isomer, unassigned; (+)) [Igmesine, (+) N-cyclopropylmethyl-N-methyl-1,4-diphenyl-1-ethyl-butyl-2-N]
Ki (sigma-1 receptor; [6]): < 50 nM

O=C(OCCOCCN1CCCCC1)N1c2ccccc2Sc2cccnc21 [Pipazethate]
IC50 (sigma-1): 190 nM
Ki (sigma-1 receptor; [4]): < 50 nM

C[C@]12CC[C@H](OS(=O)(=O)O)CC1=CC[C@@H]1[C@@H]2CC[C@]2(C)C(=O)CC[C@@H]12 [PB-008, dihydroepiandrosterone sulphate]
Ki (sigma-1 receptor; [6]): 500 to 10000 nM

Cc1c(-c2ccccc2)oc2ccc(OCCCCCCN3CCC(O)CC3)cc2c1=O [NPC 16377, 6-[6-(4-hydroxypiperidinyl)hexyloxy]-3-methylflavone]
Other known affinity [1]: No

CC(=O)C1CCC2C3CC=C4CC(OS(=O)(=O)O)CCC4(C)C3CCC12C (centres unmarked) [Pregnenolone sulphate]
Ki (sigma-1 receptor; [6]): 500 to 10000 nM

CN(C)CCCN1c2ccccc2CCc2ccccc21 [Imipramine]
Other known affinity [1]: MAOI
Ki (sigma-1 receptor; [6]): 50 to 500 nM
